“And” between values parts separate entries of the source, which are not always exact repeats. Identical values can stand only once.
Assay: Urine and faeces analysis by HPLC (mCy-containing compounds)
Format: in vivo, mice
[1] = Time period 0-2 h, individual mice, matrix and injected agent not given
[2] = Time period 0-2 h, mean of 3 mice, matrix and injected agent not given
[3] = Time period 2-4 h, individual mice
[4] = Time period 2-4 h, mean of 3 mice
[5] = Time period 4-8 h, individual mice
[6] = Time period 4-8 h, mean of 3 mice
[7] = Time period 8-12 h, mean of 3 mice
[8] = after i.v. preformed PtIVNPs, 2-4 h
[9] = after i.v. preformed PtIVNPs, 4-8 h
[10] = after i.v. preformed PtIVNPs, 8-12 h

Structure (SMILES): CC1(C)C(/C=C/C2=C3Oc4cc(O)c(Cl)cc4C=C3CCC2)=[N+](CCCNC(=O)[C@@H](Cc2ccccc2)NC(=O)[C@@H](Cc2ccccc2)NC(=O)CCC(=O)[O][Pt]([NH2])([NH2])([OH])([Cl])[Cl])c2ccccc21 [CyPt]
- Compound found in excreta (%), Supplementary Table S5 [1]: 1.0169% and 1.15% and 0.9269%
- Compound found in excreta (%), Supplementary Table S6 [1]: 0.0316% and 0.04969% and 0.02632%
- Compound found in excreta (%), Supplementary Table S7 [1]: 0%
- Compound found in excreta (%), Supplementary Table S8 [1]: 0.5086% and 0.616% and 0.02021%
- Compound found in excreta (%), Supplementary Table S5 [2]: 1.03%
- Compound found in excreta (%), Supplementary Table S6 [2]: 0.0359%
- Compound found in excreta (%), Supplementary Table S7 [2]: 0.00%
- Compound found in excreta (%), Supplementary Table S8 [2]: 0.38%
- Compound found in excreta (%), Supplementary Table S5 [3]: 0.5615% and 0.6076% and 0.4976%
- Compound found in excreta (%), Supplementary Table S6 [3]: 0.965% and 1.15% and 0.7153%
- Compound found in excreta (%), Supplementary Table S7 [3]: 2.308% and 2.538% and 1.332%
- Compound found in excreta (%), Supplementary Table S8 [3]: 12.9072% and 11.8054% and 9.624%
- Compound found in excreta (%), Supplementary Table S5 [4]: 0.56%
- Compound found in excreta (%), Supplementary Table S6 [4]: 0.94%
- Compound found in excreta (%), Supplementary Table S7 [4]: 2.06%
- Compound found in excreta (%), Supplementary Table S8 [4]: 11.45%
- Compound found in excreta (%), Supplementary Table S5 [5]: 0.2738% and 0.2968% and 0.2509%
- Compound found in excreta (%), Supplementary Table S6 [5]: 10.4273% and 10.6083% and 7.985%
- Compound found in excreta (%), Supplementary Table S7 [5]: 3.373% and 3.391% and 1.995%
- Compound found in excreta (%), Supplementary Table S8 [5]: 11.1798% and 12.4002% and 9.36%
- Compound found in excreta (%), Supplementary Table S5 [6]: 0.27%
- Compound found in excreta (%), Supplementary Table S6 [6]: 9.67%
- Compound found in excreta (%), Supplementary Table S7 [6]: 2.92%
- Compound found in excreta (%), Supplementary Table S8 [6]: 10.98%
- Compound found in excreta (%), Supplementary Table S8 (Time period 8-12 h, individual mice): 1.288% and 2.706% and 1.988%
- Compound found in excreta (%), Supplementary Table S5 [7]: 0.00%
- Compound found in excreta (%), Supplementary Table S6 [7]: 0.76%
- Compound found in excreta (%), Supplementary Table S7 [7]: 1.17%
- Compound found in excreta (%), Supplementary Table S8 [7]: 1.99%
- percentage excreted to the faeces (HPLC) (after i.v. P-CyPt, 2-4 h): 0.94 ± 0.22%
- percentage excreted to the urine (HPLC) (after i.v. P-CyPt, 2-4 h): 0.56 ± 0.055%
- percentage excreted to the faeces (HPLC) (after i.v. P-CyPt, 4-8 h): 9.67 ± 1.46% and ~ 9.7%
- percentage excreted to the urine (HPLC) (after i.v. P-CyPt, 4-8 h): 0.27 ± 0.23%
- percentage excreted to the faeces (HPLC) (after i.v. P-CyPt, 8-12 h): 0.76 ± 0.14%
- percentage excreted to the urine (HPLC) (after i.v. P-CyPt, 8-12 h): 0%
- percentage excreted to the faeces (HPLC) [8]: 11.44 ± 1.67%
- percentage excreted to the urine (HPLC) [8]: 2.06 ± 0.64%
- percentage excreted to the faeces (HPLC) [9]: 10.98 ± 1.53%
- percentage excreted to the urine (HPLC) [9]: 2.92 ± 0.80%
- percentage excreted to the faeces (HPLC) [10]: 1.99 ± 0.71%
- percentage excreted to the urine (HPLC) [10]: 1.16 ± 0.43%
